Cl.NC1CCSC1=O (racemic)
solubility (mole fraction)
Settings | in 1,4-dioxane | in 2-butanone | in acetone | in acetonitrile | in dichloromethane | in ethanol | in ethyl acetate | in isopropanol | in methanol
283.15 K | – | 0.000125 | 0.000115 | 4.5e-05 | 6.4e-05 | 0.00319 | 0.000238 | 0.000521 | 0.0154
288.15 K | – | – | – | – | 0.000114 | – | – | – | –
293.15 K | 0.0005 | 0.00021 | 0.000202 | 8.7e-05 | 0.000171 | 0.00413 | 0.000281 | 0.000786 | 0.0187
298.15 K | – | – | – | – | 0.000262 | – | – | – | –
303.15 K | 0.000691 | 0.000307 | 0.00026 | 0.000135 | 0.000356 | 0.00509 | 0.000342 | 0.00116 | 0.0226
308.15 K | 0.000783 | – | – | – | – | – | – | – | –
313.15 K | 0.000872 | 0.000361 | 0.000331 | 0.000175 | – | 0.00627 | 0.000385 | 0.00154 | 0.0272
323.15 K | 0.000995 | 0.000431 | 0.000439 | 0.000212 | – | 0.00766 | 0.000458 | 0.00187 | 0.0326

— BigSolDB 2.1
